Reference: BindingDB's records for doi:10.1021/jm00159a013 (1986)

Biological target: Prostacyclin synthase (Sus scrofa)
Test: Inhibition of porcine aorta prostacyclin PGI-2 synthetase

Row | IC50 | SMILES
1 | > 100 µM | Cc1c(Cn2ccnc2)oc2ccc(C(=O)O)cc12 [2-Imidazol-1-ylmethyl-3-methyl-benzofuran-5-carboxylic acid]
2 | > 100 µM | Cc1c(Cn2ccnc2)sc2cc(C(=O)O)ccc12 [2-Imidazol-1-ylmethyl-3-methyl-benzo[b]thiophene-6-carboxylic acid]
3 | > 100 µM | O=C(O)c1ccc2c(Cl)c(Cn3ccnc3)sc2c1 [3-Chloro-2-imidazol-1-ylmethyl-benzo[b]thiophene-6-carboxylic acid]
4 | > 100 µM | O=C(O)c1ccc2oc(Cn3ccnc3)c(Cl)c2c1 [3-Chloro-2-imidazol-1-ylmethyl-benzofuran-5-carboxylic acid]
5 | > 100 µM | O=C(O)c1ccc2sc(Cn3ccnc3)cc2c1 [2-Imidazol-1-ylmethyl-benzo[b]thiophene-5-carboxylic acid]
6 | > 100 µM | Cc1c(Cn2ccnc2)sc2ccc(C(=O)O)cc12 [2-Imidazol-1-ylmethyl-3-methyl-benzo[b]thiophene-5-carboxylic acid]
